# Measurements published in US20220339116A1, “LIPID NANOPARTICLES AS ORAL VEHICLES OF IMMUNOTHERAPY” (The Johns Hopkins University, priority 2019, published 2022).
# Columns and labels:
# [1] = cited from earlier work
# [2] = system: Treg cells; assay: T cell CFSE-Proliferation-Assay of Treg suppressive activity; assay type: cell-based; conditions: Treg at 2:1 or 4:1 T cell to Treg ratio; Tofa at 0.5 or 1 μM
# Procedure: FIG. 3. […] Results of CFSE-Proliferation-Assay conducted with the addition of Treg cells (at either 2:1 or 4:1 T cell to Treg ratio) and Tofa (at 0.5 or 1 μM). Values are normalized to the extent of proliferation measured with no Treg.
# [3] = system: bone marrow derived dendritic cells (DC); assay: DC maturation in response to LPS with soluble Tofa (flow cytometry, ELISA); assay type: cell-based, mouse
# Procedure: FIGS. 2A-2B. Jak inhibition impacts APC maturation. 2A, Representative graphs of surface expression of maturation markers on DC left untreated or exposed overnight to LPS+/−Tofa. 2B, Supernatants from DC cultures were tested for accumulation of the indicated cytokines by ELISA. n=3.
# The latter two have been implicated in T1D development and inhibition of their accumulation would be a valuable effect.
# [4] = system: NOD mice; assay: Diabetes onset in NOD mice after oral gavage; assay type: in vivo, mouse; conditions: amount identical to that used in Tofa-NLC; ongoing group
# Description: FIG. 13. Oral administration of Tofa-NLC delays diabetes onset. We tested the effect of Tofa-NLC administration via oral gavage to two treatment groups: 1) 3 week-old NOD mice (corresponding to Pre-stage 1 in human patients) and 2) 10 week-old NOD mice (corresponding to advanced Stage 1 in human patients).
# All these characteristics indicate that LNp would be a most valuable delivery system for the tissue selective actuation of a combination immunotherapy. We then began to define the effects of a transient administration of Tofa-NLC on diabetes development in NOD mice. […] We then tested the effect of Tofa-NLC administration via oral gavage to two treatment groups: 1) 3 week-old NOD mice (corresponding to Pre-stage 1 in human patients) and 2) 10 week-old NOD mice (corresponding to advanced Stage 1 in human patients). […] In particular, oral administration to 3-week-old NOD mice prevented onset of disease in 70% of the animals for more than 40 weeks.
Substance,Solubility in Dimethyl Sulfoxide [1] [mg/mL],suppressive activity of Treg [2],"release of inflammatory cytokines IL-6, IL-1, TNF-α ([3]; DC culture supernatants, ELISA)",up-regulation of CD80 and CD86 costimulatory molecules ([3]; DC exposed to LPS +/- Tofa),up-regulation of MHC-II molecules ([3]; DC exposed to LPS +/- Tofa),therapeutic effect on diabetes development [4]
Filgotinib,85,–,–,–,–,–
Tofacitinib,–,preservation of regulatory activity,reduction in release of the prototypical inflammatory cytokines,significant inhibition of the up-regulation of CD80 and CD86 costimulatory molecules,did not prevent the up-regulation of MHC-II molecules,inferior (if not absent) therapeutic effect
